Columns and labels:
Type in all cases: physicochemical
[1] = Methanol content (residual methanol) measured using a gas chromatograph; conditions: value includes methanol adhering to the crystal surface
Experimental: Analysis Example Using Gas Chromatograph
Used equipment: GC-2014 (manufactured by Shimadzu Corporation)
Column: AGILENT J&W DB-WAX 30 m×0.535 mm×1.00 μm (Agilent Technologies, Inc.)
Column temperature: 200° C.
By analysis using HPLC, it was confirmed that the crystal was a crystal of eucomic acid. […] The methanol content is a value including methanol adhering to the crystal surface. The methanol content in the crystal except for the methanol adhering to the crystal surface was 9.0 wt %. It was considered from this that the crystal was a mono-methanol solvate crystal of eucomic acid.
Subsequently, the obtained methanol solvate crystal of eucomic acid was heated and dried at 100° C. for 9 hours at normal pressure. By analysis using HPLC, it was confirmed that the crystal after heating and drying was a crystal of eucomic acid. […] As a result of measuring residual methanol using a gas chromatograph, a methanol content of the crystal was 0.14 wt %. It was found from the above that the crystal was a non-solvate crystal of eucomic acid.

[2] = Methanol content in crystal, except methanol adhering to the crystal surface, by thermal analysis; conditions: excluding surface-adhering methanol
Description: The fact that the methanol solvate crystal of eucomic acid is a mono-methanol solvate crystal can be confirmed by the fact that a methanol content in the crystal except for methanol adhering to a crystal surface thereof is generally 7.0 to 14.0 wt %, preferably 9.0 to 11.0 wt %.
The methanol content in the crystal except for the methanol adhering to the crystal surface can be measured by, for example, thermal analysis described in the following measurement example.
Measurement Example of Methanol Content in Crystal by Thermal Analysis
Used equipment: EXSTAR 6000 TG/DTA 6200 (manufactured by Seiko Instruments Inc.)
Measurement conditions: Temperature rises from 20° C. to 30° C. at 20° C./min→Hold for 15 minutes at 30° C.→Temperature rises from 30° C. to 250° C. at 5° C./min
Nitrogen flow rate: 300 mL/min

[3] = Angle of repose measurement (Multi Tester MT-1001T); conditions: sieve 1.18 mm, vibration width 0.5 to 0.6 mm; mean of three sites
Description: The angle of repose refers to an angle formed by a generating line of a cone formed with a powder when the powder is allowed to gently fall onto the horizontal plane through a kind of funnel and a horizontal plane.
The angle of repose can be measured using Multi Tester MT-1001T (manufactured by Seishin Enterprise Co, Ltd.) in accordance with the accompanying manual according to the following measurement example.
Measurement Example of Angle of Repose
Used equipment: multi-tester MT-1001T type (manufactured by Seishin Enterprise Co., Ud.)
Vibration width: 0.5 to 0.6 mm
Measurement method: Crystals are allowed to fall by passing through a sieve of 1.18 mm that is vibrated with a width of 0.5 to 0.6 mm, and are deposited on an angle-of-repose table (part number: MT-1029). The angle-of-repose table is rotated without being given vibration, angles are read at three sites, and an arithmetic mean value of the angles is determined to be the angle of repose.

[4] = Uniformity coefficient from particle size distribution measurement; conditions: ratio of 60% passing to 10% passing particle diameter; closer to 1 = higher fluidity
Description: The uniformity coefficient is an index representing fluidity of the powder, and refers to a ratio obtained by dividing a particle diameter through which the powder in an amount of 60% passes by a particle diameter through which the powder in an amount of 10% passes on a cumulative particle diameter distribution curve measured by particle size distribution measurement or sieve division. The closer the value of the uniformity coefficient is to 1, the higher the fluidity is.
The uniformity coefficient can be measured in accordance with the accompanying manual using, for example, a particle size distribution measuring device LS 13 32 (manufactured by Beckman Coulter, Inc.).

[5] = Water content by Karl Fischer method; conditions: crystal after heating and drying at 100° C. for 9 hours
Experimental: Measurement Example by Karl Fischer Method
Used equipment: AQV-2200 (HIRANUMA SANGYO Co., Ltd.)
Measurement method: The water content in the crystal is measured in accordance with instructions for use of AQV-2200 (HIRANUMA SANGYO Co., Ltd.)

| Methanol content [1] | Methanol content ([1]; listed as methanol solvate crystal of eucomic acid) | Methanol content in the crystal except for the methanol adhering to the crystal surface [2] | Angle of repose [3] | Uniformity coefficient [4] | Methanol content ([1]; listed as non-solvate crystal of eucomic acid) | Water content (hydrated water) [5] | Compound |
| --- | --- | --- | --- | --- | --- | --- | --- |
| 28.1 wt % | 28.1 wt % | 9.0 wt % | 45.7 degree | 4.25 |  |  | O=C(O)C[C@](O)(Cc1ccc(O)cc1)C(=O)O [Methanol solvate crystal, (R)-2-hydroxy-2-[(4-hydroxyphenyl)methyl]butanedioic acid] |
| 0.14 wt % |  |  | 39.0 degree | 3.36 | 0.14 wt % | did not contain hydrated water | O=C(O)C[C@](O)(Cc1ccc(O)cc1)C(=O)O [Non-solvate crystal, (R)-2-hydroxy-2-[(4-hydroxyphenyl)methyl]butanedioic acid] |
